# Laboratory results taken from US20140147853A1, “Method for Predicting Respiratory Toxicity of Compounds” (priority 2009, published 2014).
# “Also recorded” adds a separate entry of the source. Like-named read-outs stand apart in the source and are kept apart here.
# Assays:
# [1] = system: EPIAIRWAY cells; test: Intracellular glutathione (GSH) levels, oxidative stress; assay type: cell-based, human
# Protocol: (§1) The dosing regimen used here brackets this dose. […] Again, the dosing regimen used brackets this concentration. […] This calculates to 750 ng/cm^2.
# Intracellular glutathione levels were determined essentially as described by Griffith (1980) with modifications. At the end of the exposure period, the medium was removed from the cells and metaphosphoric acid (MPA) was added to each well. Plates were then shaken for 5 min at room temperature and stored at −20° C. until needed.
# [2] = system: EPIAIRWAY cells; test: Cell viability by MTT reduction in EPIAIRWAY 3-D model; assay type: cell-based, human
# Protocol: as §1
# Cell viability was determined by measuring the reduction of 3-[4,5-dimethylthiazol-2-yl]2,5-diphenyltetrazolium bromide (MTT). The cells in each well were evaluated for their ability to reduce soluble-MTT (yellow) to formazan-MTT (purple). An MTT stock solution was prepared […] complete medium just prior to use and warmed to 37° C. in a water bath. Once the media and dosing solution was removed from all wells, MTT solution was added to the basal side of each well and the plate was allowed to incubate at 37° C. for 3-4 hr. Media was removed and the purple formazan product was extracted using anhydrous isopropanol applied to both the apical and basal side of the cells. Sample absorbance was read at 570 nm and reference absorbance at 650 nm with a Packard Fusion or equivalent plate reader.
# [3] = system: IL-1α; test: qRT-PCR gene expression in EPIAIRWAY cells; assay type: cell-based, human; settings: 24 hours; 1, 10, 30, 100 dosed
# Protocol: as §1
# [4] = system: IL-6; test: qRT-PCR gene expression in EPIAIRWAY cells; assay type: cell-based, human; settings: for IL-6 mRNA expression vs control: 24 hours, 1, 10, 30, 100 dosed
# Protocol: as §1
# [5] = system: Bcl2; test: qRT-PCR gene expression in EPIAIRWAY cells; assay type: cell-based, human; settings: 24 hours
# Protocol: as §1
# [6] = system: TNF-α; test: qRT-PCR gene expression in EPIAIRWAY cells; assay type: cell-based, human; settings: for TNF-α mRNA expression vs control: 1, 10, 30, 100 dosed
# Protocol: as §1
# [7] = system: IL-8; test: qRT-PCR gene expression in EPIAIRWAY cells; assay type: cell-based, human; settings: 24 hours
# Protocol: as §1
# [8] = system: CYP1A1
# Protocol: The three-dimensional in vitro human [sequence] system may be purchased from MatTek (Ashland, Mass.). Cultures are maintained with supplied culture media according to the manufacturer's instructions. Briefly, [sequence] 96-well plates are allowed to equilibrate in 250 μL media for at least 18 hours overnight at 37° C. with 5% CO2 upon arrival. Media is changed every other day if cells are not used immediately after equilibration.
# In the Examples described below, dosing solutions were prepared in DPBS (MatTek, Ashland, Mass.). The [sequence] cells were dosed with 100 μL of the following concentrations: 1, 10, 30 and 100 μM bleomycin, cadmium chloride, beryllium sulfate and doxorubicin; 1, 10, 30 and 100 μg/cm^2 silica; and 1, 10, 30 and 100 ng/mL LPS. […] The dosing regimen used here brackets this dose. […] Again, the dosing regimen used brackets this concentration. […] This calculates to 750 ng/cm^2. The concentrations and volumes dosed calculate to 483 ng/cm^2 (1 μM), 4.83 μg/cm^2 (10 μM), 14.5 μg/cm^2 (30 μM) and 48.3 μg/cm^2 (100 μM) doxorubicin, bracketing the safe range. MIN-U-SIL 5 silica, with an average surface area of 5.1 cm^2/g gives the following concentrations dosed: 0.051 cm^2/cm^2 (1 μg/cm^2), 0.51 cm^2/cm^2 (10 μg/cm^2), 1.53 cm^2/cm^2 (30 μg/cm^2) and 5.1 cm^2/cm^2 (100 μg/cm^2). […] In order to analyze the acute response of [sequence] cells to LPS, cells are exposed to LPS concentrations ranging from 1 ng/mL to 100 ng/mL. Following the exposure period, the dosing solutions are removed and cells are analyzed for changes in structure, cell viability, oxidative stress and gene expression.
# Total RNA was isolated from [sequence] human respiratory cells by the TRIZOL (Invitrogen, Carlsbad, Calif.) method (Chomczynski and Sacchi, 1987)with modifications. Briefly, cells were punched out using a biopsy punch (Miltex, York, Pa.) and immediately placed in TRIZOL. The samples were then frozen at −80° C. until needed. After thawing, the isolation procedure followed the manufacturer's instructions.
# Induction of target gene mRNA was determined as follows, by standard one-step qRT-PCR techniques using multiple internal control genes for normalization with a few modifications (Vandesompele et al, 2002). RT-PCR was performed using the Quantitect® SYBR Green RT-PCR kit (Qiagen, Valencia, Calif.) according to the manufacturer's instructions for 20 μL reactions. All primers were [sequence] Primer Assay (Qiagen, Valencia, Calif.) containing forward and reverse primers in the same tube (see Table 1, below). Briefly, 50 ng of RNA in 20 μL reactions are set up in 384-well RT-PCR plates (Roche Diagnostics Corp., Indianapolis, Ind.) and placed in a [sequence] 480 real time PCR machine (Roche Diagnostics Corp., Indianapolis, Ind.). One-step PCR was set as follows; reverse transcription was 1 cycle of 50° C. for 30 minutes followed by 95° C. for 15 minutes. Amplification was set for 45 cycles of 94° C. for 15 seconds, 55° C. for 20 seconds and 72° C. for 20 seconds. Melting curve was generated by 1 cycle of 95° C. for 5 seconds followed by 65° C. for 1 minute. Data were analyzed using the [sequence] 480 software version 1.5.0.39 (Roche Diagnostics Corp., Indianapolis, Ind.). The expression levels of multiple housekeeping genes were determined and an average fold induction over vehicle was elucidated for each housekeeping gene.
# [9] = system: fetal human lung cells and human lung fibroblasts; settings: Sakaguchi 1984, Lehnert 2001; cited from earlier work
# [10] = system: human epithelial cells; settings: Han et al., 2007; cited from earlier work
# [11] = system: EPIAIRWAY cells; test: Histology of EPIAIRWAY 3-D model (structural integrity); assay type: cell-based, human
# Protocol: as §1
# Cells were isolated using a 3 mm biopsy punch (Miltex, York, PA) and immediately placed in […] 10% Neutral Buffered Formalin (Fisher Diagnostics, Middletown, Va.). Histology was performed essentially as described by Sheehan and Hrapchak (1980). Briefly, cells were processed and embedded into paraffin wax blocks. The blocks were sectioned at 3 μm, adhered to slides and stained with hematoxylin and eosin. Photos were taken at 10× magnification.
# [12] = system: human fetal lung fibroblasts; settings: Yang et al., 1997; cited from earlier work
# [13] = system: Bax; test: qRT-PCR gene expression in EPIAIRWAY cells; assay type: cell-based, human; settings: 24 hours
# Protocol: as §1
# [14] = every 3 weeks, phase 1 study (Otterson 2007); cited from earlier work
# [15] = Literature: phase 1 study of inhaled doxorubicin; assay type: in vivo, human; settings: calculated from 7.5 mg/m^2
# Protocol: as §1
# [16] = system: EPIAIRWAY cells; test: LDH release into the media by EPIAIRWAY cells; assay type: cell-based, human; settings: 100 μM
# From the text: The primary shortcoming of this model system appears to be that the MTT results to not compare well with histology. This may be due to the fact that the basal cell layers have the highest metabolic activity given that they are still rapidly dividing. […] Fortunately, there appears to be a much more concise method to assess cytotoxicity in this model system. Lactate dehydrogenase is a cytosolic enzyme commonly used as a marker for cell membrane permeability, and therefore, cytotoxicity (Davies et al., 1973).
# [17] = system: human lung epithelia and fibroblasts; settings: in vitro (Sato 1999, Takamizawa 1999); ~7.1 μM; cited from earlier work
# [18] = system: TGF-β; test: qRT-PCR gene expression in EPIAIRWAY cells; assay type: cell-based, human; settings: 24 hours of exposure
# Protocol: as §1
# [19] = any dose (1, 10, 30, 100), 24 and 72 hours
# [20] = 24 hours, 1, 10, 30, 100 dosed, >2-fold significant
# [21] = dose-dependent, 1-100 μM, maximum reached
compound,measurement,setting,value
"O=S(=O)([O-])[O-].[Be+2] [Beryllium sulfate, beryllium sulfate]",Intracellular GSH,"[1]; 1 μM, 72 hours",65 % of control
same,Effect on intracellular GSH,"[1]; 10 μM, 72 hours",did not have an effect
same,Intracellular GSH,"[1]; 30 μM, 72 hours",83 % of control
same,Intracellular GSH,"[1]; 100 μM, 72 hours",71 % of control
same,Effect on intracellular GSH,"[1]; 24 hours, 1, 10, 30 and 100 μM",no effect
same,Effect on cell viability (MTT),[2]; [19],did not reduce cell viability
same,IL-1α mRNA expression vs control,[3],substantially induced
same,IL-6 mRNA expression vs control,[4],substantially induced
same,Bcl2 mRNA expression vs control,[5]; 100 μM,mildly induced
same,TNFα mRNA expression vs control,"[6]; 100 μM, 24 hours",mildly induced
same,IL-8 mRNA expression vs control,[7]; 1 and 30 μM,mildly induced
same,CYP1A1 mRNA expression vs control,[8]; [20],substantially induced
[Be+2] [Beryllium],Lowest cytotoxic concentration,[9],≥ 5.5 µM
"[Cl][Cd][Cl] [Cadmium chloride, cadmium chloride]",Concentration exhibiting cytotoxicity,[10],50 µM
same,Histology: cell structure,"[11]; 10 μM, 24 hour exposure",cell loss
same,Histology: cell structure,"[11]; 100 μM, 24 hour exposure",much more noticeable a breakdown of cellular structure
same,Histology: cell structure,[11]; 24 hours,significant structural breakdown and cell loss
same,Effect on intracellular GSH,"[1]; 24 hours, 1, 10, 30 and 100 μM",no reduction
same,Cell viability (MTT),"[2]; 100 μM, 24 hours",56 % of control
same,Concentration inducing significant LDH release,[12],8.75 µM
same,IL-6 mRNA expression vs control,[4],substantially induced
same,Bax mRNA expression vs control,[13]; 100 μM,mildly induced
same,Bcl2 mRNA expression vs control,[5]; 100 μM,mildly induced
same,TNF-α mRNA expression vs control,[6]; 24 hours,mild induction
same,CYP1A1 mRNA expression vs control,[8]; [20],substantially induced
COc1cccc2c1C(=O)c1c(O)c3c(c(O)c1C2=O)C[C@@](O)(C(=O)CO)C[C@@H]3O[C@H]1C[C@H](N)[C@H](O)[C@H](C)O1 [Doxorubicin],Histology: cell structure,[11]; 24 hours,significant structural breakdown and loss of cells; also recorded: significant structural breakdown and cell loss
same,Intracellular GSH,"[1]; 100 μM, 72 hours",10 % of control
same,Intracellular GSH,"[1]; 10, 30 and 100 μM, 24 hours",80 % of control
same,Effect on cell viability (MTT),"[2]; 1 μM, either time point (24, 72 hours)",no effect on cell viability
same,Cell viability (MTT),"[2]; 100 μM, 72 hours",57 % of control
same,Effect on cell viability (MTT),"[2]; 24 hours, 1, 10, 30 and 100 μM",not observed
same,Dose identified as safe for inhalation,[14],up to 7.5 mg/m^2
same,IL-1α mRNA expression vs control,[3],substantially induced
same,IL-6 mRNA expression vs control,[4],substantially induced
same,Ratio of Bax:Bcl2 expression,[13],decreased
same,Bcl2 mRNA expression vs control,"[5]; 1, 10, 30 and 100 μM",substantially induced
same,TNF-α mRNA expression vs control,[6]; 24 hours,substantially induced
same,IL-8 mRNA expression vs control,[7]; only 1 μM,mildly induced
same,CYP1A1 mRNA expression vs control,[8],substantially induced
same,Safe inhalation dose recalculated per area,[15],750 ng/cm^2
Bleomycin,"LDH release into the media, increase compared to control",[16]; 24 hours,292%
same,"LDH release into the media, increase compared to control",[16]; 72 hours,588%
same,Histology: cell structure,[11]; 24 hours,significant structural breakdown and cell loss; also recorded: significant structural breakdown and loss of cells
same,Intracellular GSH,"[1]; 1 μM, 72 hours",71 % of control
same,Total cellular GSH,"[1]; 100 μM, 24 hours",75 % of control
same,Effect on cell viability (MTT),"[2]; 24 hours, 1, 10, 30 and 100 μM",no effect on viability
same,Cell viability (MTT),"[2]; 72 hour exposure, 1, 10, 30 and 100 μM dosed",90 % of control
same,Concentration inducing cytokine release while relatively non-toxic,[17],10 µg/mL
same,IL-1α mRNA expression vs control,[3],induced in a dose-dependent manner
same,IL-6 mRNA increase over control tissues,[4]; [21],> 20 fold
same,TGF-β mRNA expression vs control,[18],induction was not seen
same,Ratio of Bax:Bcl2 expression,[13],decreased
same,Bcl2 mRNA expression vs control,"[5]; 1, 10, 30 and 100 μM",induced
same,TNF-α mRNA increase over control tissues,[6]; [21],> 20 fold
same,IL-8 mRNA expression vs control,"[7]; 1, 10, 30, 100 dosed",induced in a dose-dependent manner
same,CYP1A1 mRNA expression vs control,[8]; [20],greatly induced
Triton X-100,Histology: killing of basal cell layers,"[11]; 0.3%, 24 hours",unable to kill these bottom layers of cells
lipopolysaccharide [LPS],Intracellular GSH,"[1]; 100 ng/mL, 24 hours",65 % of control
same,Effect on cell viability (MTT),[2]; [19],did not reduce cell viability
same,IL-1α mRNA expression vs control,[3],"substantial, dose-independant induction"
same,IL-6 mRNA expression vs control,[4],"substantial, dose-independant induction"
same,Bcl2 mRNA expression vs control,[5]; only 30 and 100 ng/mL,induced
same,TNF-α mRNA expression vs control,[6]; 24 hours,"substantial, dose-independant induction"
same,IL-8 mRNA expression vs control,"[7]; 1, 10, 30, 100 dosed",mild induction
same,CYP1A1 mRNA expression vs control,[8]; [20],dose-dependant increase
